Numbering of substitutions follows the chain as printed. pKi: −log10 of the molar value. Where no end group is shown, it is not given here.
Key:
Test in all cases: Homologous whole cell competition binding
Conditions in all cases: homologous competition of 125I-sCT(8-32), whole cells, mean ± S.E.M., SEM
[1] = target: T1, hCTR F285A (Homo sapiens, UniProt P30988, F285A)
T1 construct: expressed in transfected cells
T1 sequence (P30988 25-474 F285A): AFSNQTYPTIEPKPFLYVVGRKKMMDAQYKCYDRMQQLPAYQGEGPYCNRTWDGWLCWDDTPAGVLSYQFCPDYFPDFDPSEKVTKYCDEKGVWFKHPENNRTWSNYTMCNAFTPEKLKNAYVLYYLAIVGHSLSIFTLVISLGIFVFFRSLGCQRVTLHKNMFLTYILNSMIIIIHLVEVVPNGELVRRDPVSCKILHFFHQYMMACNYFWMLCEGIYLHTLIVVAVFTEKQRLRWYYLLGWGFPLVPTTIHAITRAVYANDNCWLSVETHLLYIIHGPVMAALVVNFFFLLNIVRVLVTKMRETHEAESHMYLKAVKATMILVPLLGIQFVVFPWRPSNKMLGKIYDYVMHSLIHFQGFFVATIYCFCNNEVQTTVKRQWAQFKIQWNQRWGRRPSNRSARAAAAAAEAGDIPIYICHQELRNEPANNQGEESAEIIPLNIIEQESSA
In short: (§1)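 Affinity comes from self-competition of sCT(8-32) against its iodinated form on intact cells, held at 4 °C overnight. Bound counts were read on a gamma counter, fitted to a 3-parameter logistic curve and converted with Cheng-Prusoff.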

[2] = target: T2, hCTR M376A (Homo sapiens, UniProt P30988, M376A)
T2 construct: c-Myc (N); expressed in transfected cells
T2 sequence (P30988 25-474 M376A): T1 sequence (P30988 25-474 F285A) with A261F, M352A
In short: as §1

[3] = target: T3, hCTR P360A (Homo sapiens, UniProt P30988, P360A)
T3 construct: expressed in transfected cells
T3 sequence (P30988 25-474 P360A): T1 sequence (P30988 25-474 F285A) with A261F, P336A
In short: as §1

[4] = target: T4, hCTR Y372A (Homo sapiens, UniProt P30988, Y372A)
T4 construct: c-Myc (N); expressed in transfected cells
T4 sequence (P30988 25-474 Y372A): T1 sequence (P30988 25-474 F285A) with A261F, Y348A
In short: as §1

pKi [1]: 9.99
pKi [2]: 9.88
pKi [3]: 9.22
pKi [4]: 9.85
Substance: VLGKLSQELHKLQTYPRTNTGSGTP-NH2 [sCT(8-32)]

— article PMC5908784, “Extracellular loops 2 and 3 of the calcitonin receptor selectively modify agonist binding and efficacy” (Biochemical Pharmacology, 2018)
